Like-named read-outs stand apart in the source and are kept apart here. Marks after values point to notes of the source that are not given here.
Assays:
[1] = biological target: human Nav1.3 sodium channels (Homo sapiens, UniProt Q9NY46); test: whole-cell patch clamp, Nav1.3 in CHO-K1 cells; format: cell-based; details: 250 μmol/L; for Fast inactivation V0.5 / Slow inactivation V0.5: n = 3–6; for time constant for entering the slow inactivated state: control 20.29 sec
[2] = human plasma and CSF pharmacokinetics; format: in vivo; details: LCM 600 mg twice daily, protein binding ∼15%
[3] = ref Doty et al. [2007]; cited from earlier work
[4] = system: sodium channels endogenously expressed in N1E-115 mouse neuroblastoma cells; details: 250 μmol/L; ref Hebeisen et al. [2014]; cited from earlier work
[5] = biological target: human α1β2γ2 GABAA receptors (Homo sapiens, UniProt P14867+P18507+P47870); test: submaximal GABA currents in Ltk cells; format: cell-based
[6] = system: kindling epileptogenesis; test: bilateral corneal kindling; format: in vivo, mouse; details: Table 5 summary; values are ED50 (mg/kg)
[7] = biological target: hCav2.1 calcium channels (Homo sapiens, UniProt O00555); test: whole-cell patch clamp, hCav2.1 in CHO cells; format: cell-based; details: IC50, hCav2.1 calcium peak currents, 0.3–1000 μmol/L, holding potential −80 mV
[8] = biological target: human α2β2γ2 GABAA receptors (Homo sapiens, UniProt P18507+P47869+P47870); test: submaximal GABA currents in Ltk cells; format: cell-based
[9] = biological target: human α3β2γ2 GABAA receptors (Homo sapiens, UniProt P18507+P34903+P47870); test: submaximal GABA currents in Ltk cells; format: cell-based
[10] = biological target: human α5β2γ2 GABAA receptors (Homo sapiens, UniProt P18507+P31644+P47870); test: submaximal GABA currents in Ltk cells; format: cell-based
[11] = biological target: hKv7.2 potassium channels (Homo sapiens, UniProt O43526); test: whole-cell patch clamp, hKv7.2 in CHO cells; format: cell-based
[12] = biological target: human GRIN1/GRIN2B NMDA receptor (Homo sapiens, UniProt Q05586+Q13224); test: submaximal NMDA-receptor-mediated currents in HEK cells; format: cell-based
[13] = biological target: human GRIA1 receptor (Homo sapiens, UniProt P42261); test: AMPA-receptor-mediated currents in CHO cells; format: cell-based
[14] = biological target: T1, human GlyRα3 glycine receptors (Homo sapiens, UniProt O75311); test: submaximal glycine currents in CHO cells; format: cell-based
T1 sequence (O75311 34-464): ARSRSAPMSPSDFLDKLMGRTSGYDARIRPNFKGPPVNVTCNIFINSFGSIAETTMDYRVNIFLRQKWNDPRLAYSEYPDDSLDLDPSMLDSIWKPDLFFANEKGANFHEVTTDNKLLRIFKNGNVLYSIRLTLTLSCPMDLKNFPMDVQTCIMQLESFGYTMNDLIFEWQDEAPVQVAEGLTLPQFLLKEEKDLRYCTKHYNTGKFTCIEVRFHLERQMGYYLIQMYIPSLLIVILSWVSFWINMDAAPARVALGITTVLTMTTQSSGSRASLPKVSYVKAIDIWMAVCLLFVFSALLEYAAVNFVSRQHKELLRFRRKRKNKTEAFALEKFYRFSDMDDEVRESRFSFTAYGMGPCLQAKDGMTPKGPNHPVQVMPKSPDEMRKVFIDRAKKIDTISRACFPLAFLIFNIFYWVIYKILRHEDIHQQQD

[15] = system: Racine stage 5 seizures; test: proconvulsant effects; format: in vivo
[16] = system: transient Na+ current (INaT); details: ref Döser et al. [2013b], [2015]; cited from earlier work
[17] = system: MES-induced seizures; details: mouse, ESL 50 mg/kg p.o.; ref Pires et al. [2011]; cited from earlier work
[18] = system: latrunculin A-induced seizures; details: ESL 100 mg/kg oral, ref Sierra-Paredes et al. [2011], 2014, cited from earlier work
[19] = ref Nunes et al. [2013], cited from earlier work

Sequence of human α2β2γ2 GABAA receptors (P47869 29-451): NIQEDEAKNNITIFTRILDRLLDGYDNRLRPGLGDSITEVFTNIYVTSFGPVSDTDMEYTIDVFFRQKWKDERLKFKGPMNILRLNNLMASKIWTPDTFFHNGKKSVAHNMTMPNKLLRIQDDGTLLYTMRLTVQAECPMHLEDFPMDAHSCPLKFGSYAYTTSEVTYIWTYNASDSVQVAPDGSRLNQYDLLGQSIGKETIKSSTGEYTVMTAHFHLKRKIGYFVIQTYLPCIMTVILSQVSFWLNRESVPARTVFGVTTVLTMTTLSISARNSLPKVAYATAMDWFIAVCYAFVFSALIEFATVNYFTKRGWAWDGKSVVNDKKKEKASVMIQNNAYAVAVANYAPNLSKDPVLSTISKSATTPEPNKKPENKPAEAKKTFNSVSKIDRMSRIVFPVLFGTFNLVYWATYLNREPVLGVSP
Sequence of human α2β2γ2 GABAA receptors (P47870 25-512 limits assumed): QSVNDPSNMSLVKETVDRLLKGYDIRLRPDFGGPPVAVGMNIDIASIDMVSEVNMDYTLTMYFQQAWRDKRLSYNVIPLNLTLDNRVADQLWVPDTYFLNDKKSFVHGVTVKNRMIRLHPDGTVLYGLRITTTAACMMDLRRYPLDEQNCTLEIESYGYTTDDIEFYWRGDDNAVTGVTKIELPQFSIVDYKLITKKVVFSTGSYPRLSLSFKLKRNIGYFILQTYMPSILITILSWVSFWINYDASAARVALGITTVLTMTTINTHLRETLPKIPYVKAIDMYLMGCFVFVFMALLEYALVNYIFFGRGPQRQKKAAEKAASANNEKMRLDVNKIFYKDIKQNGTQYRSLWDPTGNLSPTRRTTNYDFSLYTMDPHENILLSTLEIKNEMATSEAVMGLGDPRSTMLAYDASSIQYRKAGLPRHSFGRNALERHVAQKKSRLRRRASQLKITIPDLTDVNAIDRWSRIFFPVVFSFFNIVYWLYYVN
Sequence of human α2β2γ2 GABAA receptors (P18507 40-475): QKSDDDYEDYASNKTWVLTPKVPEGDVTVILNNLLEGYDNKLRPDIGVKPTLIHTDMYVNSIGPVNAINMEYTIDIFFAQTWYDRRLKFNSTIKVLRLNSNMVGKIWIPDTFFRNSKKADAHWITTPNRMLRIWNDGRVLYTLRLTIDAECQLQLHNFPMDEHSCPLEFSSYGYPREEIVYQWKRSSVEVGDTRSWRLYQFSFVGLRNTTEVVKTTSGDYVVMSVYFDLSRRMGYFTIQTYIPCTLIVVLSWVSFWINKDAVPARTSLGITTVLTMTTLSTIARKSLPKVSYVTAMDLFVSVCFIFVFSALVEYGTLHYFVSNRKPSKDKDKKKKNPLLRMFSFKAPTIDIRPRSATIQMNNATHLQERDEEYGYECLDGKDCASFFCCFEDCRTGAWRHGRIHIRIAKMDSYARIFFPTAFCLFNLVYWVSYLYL
Sequence of human α5β2γ2 GABAA receptors (P31644 32-462): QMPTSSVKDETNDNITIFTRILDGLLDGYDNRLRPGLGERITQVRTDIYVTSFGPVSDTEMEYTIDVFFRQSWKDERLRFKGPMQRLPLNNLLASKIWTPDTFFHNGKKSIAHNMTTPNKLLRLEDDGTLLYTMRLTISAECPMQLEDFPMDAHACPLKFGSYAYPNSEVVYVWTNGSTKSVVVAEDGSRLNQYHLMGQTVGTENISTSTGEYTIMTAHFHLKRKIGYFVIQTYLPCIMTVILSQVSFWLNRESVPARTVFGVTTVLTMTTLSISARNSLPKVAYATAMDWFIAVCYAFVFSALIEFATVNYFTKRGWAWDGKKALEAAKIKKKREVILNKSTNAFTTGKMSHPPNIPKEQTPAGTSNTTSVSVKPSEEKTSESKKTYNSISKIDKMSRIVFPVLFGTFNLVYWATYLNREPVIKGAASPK
Sequence of human α5β2γ2 GABAA receptors (P47870 25-512 limits assumed): as the sequence (P47870 25-512 limits assumed) above
Sequence of human α5β2γ2 GABAA receptors (P18507 40-475): as the sequence (P18507 40-475) above
Sequence of human α1β2γ2 GABAA receptors (P14867 28-456): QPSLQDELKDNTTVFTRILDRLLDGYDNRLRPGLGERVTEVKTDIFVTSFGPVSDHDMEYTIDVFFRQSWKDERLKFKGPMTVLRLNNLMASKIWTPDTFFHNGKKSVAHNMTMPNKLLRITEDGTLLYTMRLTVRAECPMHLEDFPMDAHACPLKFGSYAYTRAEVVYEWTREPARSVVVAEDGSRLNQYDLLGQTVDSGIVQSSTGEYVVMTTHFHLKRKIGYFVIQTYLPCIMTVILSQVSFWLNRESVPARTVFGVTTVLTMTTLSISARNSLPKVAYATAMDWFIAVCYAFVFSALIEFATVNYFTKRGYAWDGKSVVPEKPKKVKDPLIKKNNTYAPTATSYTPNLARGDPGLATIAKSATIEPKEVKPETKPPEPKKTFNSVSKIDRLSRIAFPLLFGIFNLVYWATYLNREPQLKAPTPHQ
Sequence of human α1β2γ2 GABAA receptors (P47870 25-512 limits assumed): as the sequence (P47870 25-512 limits assumed) above
Sequence of human α1β2γ2 GABAA receptors (P18507 40-475): as the sequence (P18507 40-475) above
Sequence of human Nav1.3 sodium channels (Q9NY46 whole entry): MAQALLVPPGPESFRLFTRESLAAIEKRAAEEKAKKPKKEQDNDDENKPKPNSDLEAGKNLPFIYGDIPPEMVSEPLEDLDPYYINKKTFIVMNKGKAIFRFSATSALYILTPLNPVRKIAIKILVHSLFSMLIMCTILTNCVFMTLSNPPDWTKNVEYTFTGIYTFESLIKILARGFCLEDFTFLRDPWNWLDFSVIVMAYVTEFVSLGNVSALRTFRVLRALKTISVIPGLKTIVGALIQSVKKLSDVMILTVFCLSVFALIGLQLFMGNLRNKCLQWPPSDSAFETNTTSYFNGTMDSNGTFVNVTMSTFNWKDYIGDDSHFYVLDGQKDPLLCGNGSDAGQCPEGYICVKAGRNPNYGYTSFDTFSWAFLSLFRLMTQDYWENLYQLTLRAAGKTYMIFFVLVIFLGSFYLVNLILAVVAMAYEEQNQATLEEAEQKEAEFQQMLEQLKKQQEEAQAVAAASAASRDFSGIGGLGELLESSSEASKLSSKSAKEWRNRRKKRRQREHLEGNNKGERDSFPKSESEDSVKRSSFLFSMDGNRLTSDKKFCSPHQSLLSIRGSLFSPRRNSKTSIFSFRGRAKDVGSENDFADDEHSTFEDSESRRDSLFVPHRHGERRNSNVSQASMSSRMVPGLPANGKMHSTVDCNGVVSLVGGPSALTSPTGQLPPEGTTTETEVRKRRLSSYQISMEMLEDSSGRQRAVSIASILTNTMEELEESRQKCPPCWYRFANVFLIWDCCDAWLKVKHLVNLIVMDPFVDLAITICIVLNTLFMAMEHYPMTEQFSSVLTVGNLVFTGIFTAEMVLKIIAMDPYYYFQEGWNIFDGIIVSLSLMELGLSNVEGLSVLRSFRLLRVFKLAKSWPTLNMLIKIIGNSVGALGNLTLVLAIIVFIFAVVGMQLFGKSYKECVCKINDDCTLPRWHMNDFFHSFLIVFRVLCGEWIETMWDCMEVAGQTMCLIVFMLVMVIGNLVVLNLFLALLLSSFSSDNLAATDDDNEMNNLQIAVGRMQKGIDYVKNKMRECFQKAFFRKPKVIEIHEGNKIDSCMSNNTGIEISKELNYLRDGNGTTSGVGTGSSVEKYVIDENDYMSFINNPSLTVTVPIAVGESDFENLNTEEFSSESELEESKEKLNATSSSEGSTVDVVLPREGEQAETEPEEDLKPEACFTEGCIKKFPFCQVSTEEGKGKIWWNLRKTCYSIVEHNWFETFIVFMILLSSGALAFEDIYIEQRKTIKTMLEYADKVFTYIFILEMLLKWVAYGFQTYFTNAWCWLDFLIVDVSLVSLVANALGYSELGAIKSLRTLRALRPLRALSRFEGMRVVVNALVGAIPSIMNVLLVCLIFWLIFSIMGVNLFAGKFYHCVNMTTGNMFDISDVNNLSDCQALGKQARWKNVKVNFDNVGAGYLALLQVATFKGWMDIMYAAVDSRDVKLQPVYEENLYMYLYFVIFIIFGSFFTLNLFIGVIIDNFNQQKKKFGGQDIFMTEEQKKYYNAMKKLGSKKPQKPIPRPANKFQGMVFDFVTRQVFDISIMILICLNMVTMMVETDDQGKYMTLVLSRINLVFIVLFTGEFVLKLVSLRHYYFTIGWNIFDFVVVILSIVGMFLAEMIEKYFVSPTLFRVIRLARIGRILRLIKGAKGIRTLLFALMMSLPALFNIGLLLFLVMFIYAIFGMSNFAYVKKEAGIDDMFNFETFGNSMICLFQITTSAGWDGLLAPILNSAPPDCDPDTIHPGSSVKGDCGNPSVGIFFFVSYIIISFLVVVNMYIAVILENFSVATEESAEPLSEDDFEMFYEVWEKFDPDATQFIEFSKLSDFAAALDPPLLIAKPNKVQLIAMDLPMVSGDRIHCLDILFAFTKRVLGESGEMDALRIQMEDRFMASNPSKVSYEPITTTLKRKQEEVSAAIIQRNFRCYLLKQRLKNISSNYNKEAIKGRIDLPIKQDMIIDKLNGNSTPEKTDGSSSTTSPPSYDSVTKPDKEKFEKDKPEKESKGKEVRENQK
Sequence of human α3β2γ2 GABAA receptors (P34903 29-492): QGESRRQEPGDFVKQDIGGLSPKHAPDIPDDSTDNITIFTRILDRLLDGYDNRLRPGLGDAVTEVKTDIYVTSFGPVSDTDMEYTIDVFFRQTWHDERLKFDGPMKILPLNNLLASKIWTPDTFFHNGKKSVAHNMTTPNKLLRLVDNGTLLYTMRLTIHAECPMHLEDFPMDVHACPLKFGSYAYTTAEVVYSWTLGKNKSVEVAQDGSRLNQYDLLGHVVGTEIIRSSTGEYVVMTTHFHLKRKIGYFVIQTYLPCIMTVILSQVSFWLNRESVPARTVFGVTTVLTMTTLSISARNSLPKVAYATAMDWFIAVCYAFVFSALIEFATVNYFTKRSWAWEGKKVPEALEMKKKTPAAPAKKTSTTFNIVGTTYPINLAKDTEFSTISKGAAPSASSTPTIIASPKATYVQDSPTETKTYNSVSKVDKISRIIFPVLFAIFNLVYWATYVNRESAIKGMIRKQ
Sequence of human α3β2γ2 GABAA receptors (P47870 25-512 limits assumed): as the sequence (P47870 25-512 limits assumed) above
Sequence of human α3β2γ2 GABAA receptors (P18507 40-475): as the sequence (P18507 40-475) above

COC[C@@H](NC(C)=O)C(=O)NCc1ccccc1 [LCM, lacosamide]
Fast inactivation V0.5 ([1]; mean ± SEM): −53.54 ± 3.95 mV
Slow inactivation V0.5 ([1]; mean ± SEM): −37.04 ± 2.72 mV
time constant for entering the slow inactivated state [1]: 10.91 s
LCM-free drug, peak plasma [2]: 49 µmol/L
LCM protein binding [3]: ~15%
recovery of fast inactivated channels [4]: recovered similar to control conditions

Cc1ncc2n1-c1ccc(Cl)cc1C(c1ccccc1F)=NC2 [midazolam]
increase of submaximal α1β2γ2 GABA currents ([5]; 3 μmol/L): ~80%

NC(=O)N1c2ccccc2C=Cc2ccccc21 [CBZ, carbamazepine]
Corneal kindling (antiepileptogenic models) [6]: 140 mg/kg
Fast inactivation V0.5 ([1]; mean ± SEM): −72.33 ± 5.04 mV
Slow inactivation V0.5 ([1]; mean ± SEM): −21.56 ± 3.23 mV
Fast inactivation, individual shifts ([1]; versus control (bath), mean ± SEM): −14.35 mV
time constant for entering the slow inactivated state [1]: not affected
IC50 [7]: 452 µM
GABA inward current stimulation, α1β2γ2, Mean ± SEM ([5]; 50 μmol/L): 104.3 ± 5.0
GABA inward current stimulation, α1β2γ2, Mean ± SEM ([5]; 100 μmol/L): 117.4 ± 4.9
GABA inward current stimulation, α1β2γ2, Mean ± SEM ([5]; 250 μmol/L): 115.7 ± 5.3
GABA inward current stimulation, α1β2γ2, Mean ± SEM ([5]; 500 μmol/L): 132.4 ± 5.3
GABA inward current stimulation, α1β2γ2, Mean ± SEM ([5]; 1000 μmol/L): 150.3 ± 15.5
increase of submaximal α1β2γ2 GABA currents ([5]; 1000 μmol/L): 50%
GABA inward current stimulation, α2β2γ2, Mean ± SEM ([8]; 50 μmol/L): 97.9 ± 3.3
GABA inward current stimulation, α2β2γ2, Mean ± SEM ([8]; 100 μmol/L): 111.4 ± 2.7
GABA inward current stimulation, α2β2γ2, Mean ± SEM ([8]; 250 μmol/L): 109.0 ± 7.6
GABA inward current stimulation, α2β2γ2, Mean ± SEM ([8]; 500 μmol/L): 103.6 ± 7.6
GABA inward current stimulation, α2β2γ2, Mean ± SEM ([8]; 1000 μmol/L): 104.2 ± 2.7
GABA inward current stimulation, α3β2γ2, Mean ± SEM ([9]; 50 μmol/L): 93.3 ± 4.1
GABA inward current stimulation, α3β2γ2, Mean ± SEM ([9]; 100 μmol/L): 112.8 ± 5.4
GABA inward current stimulation, α3β2γ2, Mean ± SEM ([9]; 250 μmol/L): 131.1 ± 9.4
GABA inward current stimulation, α3β2γ2, Mean ± SEM ([9]; 500 μmol/L): 120.3 ± 11.8
GABA inward current stimulation, α3β2γ2, Mean ± SEM ([9]; 1000 μmol/L): 166.7 ± 21.0
increase of submaximal α3β2γ2 GABA currents ([9]; 1000 μmol/L): 66%
GABA inward current stimulation, α5β2γ2, Mean ± SEM ([10]; 50 μmol/L): 103.8 ± 1.5
GABA inward current stimulation, α5β2γ2, Mean ± SEM ([10]; 100 μmol/L): 103.8 ± 4.5
GABA inward current stimulation, α5β2γ2, Mean ± SEM ([10]; 250 μmol/L): 93.6 ± 4.3
GABA inward current stimulation, α5β2γ2, Mean ± SEM ([10]; 500 μmol/L): 80.7 ± 5.9
GABA inward current stimulation, α5β2γ2, Mean ± SEM ([10]; 1000 μmol/L): 63.0 ± 4.5
IC50 [11]: 572 µM
IC50 [12]: 214 µM
IC50, AMPA currents ([13]; CHO cells, human GRIA1): neither eslicarbazepine nor CBZ significantly changed AMPA currents
IC50 [14]: 441 µM
Racine stage 5 seizures (proconvulsant effects) ([15]; at 45 mg/kg): 80% ^**
recovery of fast inactivated channels [4]: required longer pulses to recover
inhibition of firing of DGCs, control versus pilocarpine-treated rats [16]: significantly reduced in chronic experimental epilepsy

NS(=O)(=O)c1cccc2c1c([N+](=O)[O-])cc1nc(O)c(O)nc12 [NBQX, 2,3-Dioxo-6-nitro-1,2,3,4-tetrahydrobenzo[f]quinoxaline-7-sulfonamide]
IC50 [13]: 19 µM

CC(=O)O[C@H]1Cc2ccccc2N(C(N)=O)c2ccccc21 [ESL, (S)-10-acetoxy-10,11-dihydro-5H-dibenz/b,f/azepine-5-carboxamide]
Corneal kindling (antiepileptogenic models) [6]: 30 mg/kg
Racine stage 5 seizures (proconvulsant effects) ([15]; at 240 mg/kg): 22% ^*
protection against MES-induced seizures [17]: 97%
hippocampal extracellular glutamate levels ([18]; microdialysate): significantly reduced glutamate levels
acute and chronic latrunculin A-induced seizures and EEG chronic signs of paroxysmal activity ([18]; Swiss mice, previous to latrunculin A microperfusion): completely prevented

N[C@H](CCCP(=O)(O)O)C(=O)O [D-AP5, D-(−)-2-amino-5-phosphonopentanoic]
IC50 ([12]; read-out: IC50, NMDA receptor-mediated currents, submaximal currents, HEK cells GRIN1/GRIN2B): 7 µM

O=C1C[C@@H]2OCC=C3CN4CC[C@]56c7ccccc7N1[C@H]5[C@H]2[C@H]3C[C@H]46 [Strychnine]
IC50 [14]: 0.052 µM

NC(=O)N1c2ccccc2CC(=O)c2ccccc21 [OXC, oxcarbazepine]
Fast inactivation V0.5 ([1]; mean ± SEM): −55.95 ± 2.91 mV
Slow inactivation V0.5 ([1]; mean ± SEM): −19.47 ± 4.55 mV
time constant for entering the slow inactivated state [1]: not affected
recovery of fast inactivated channels [4]: required longer pulses to recover
CSF Cmax of nonmetabolized OXC ([19]; ESL 1200 mg QD): 380 nM
CSF Cmax of nonmetabolized OXC ([19]; OXC 600 mg BID): 1820 nM
